Test: xn = mol fraction of the nth substance listed
Conditions: 100 kPa, Liquid; for mass density: Vibrating tube method; for viscosity: Capillary tube (Ostwald / Ubbelohde) method

CC1COC(=O)O1 (centres undefined) [4-methyl-1,3-dioxolan-2-one] + CN1CCCC1=O
Conditions	mass density [kg/m3]	viscosity [mPa·s]
293.15 K, x2 = 0	1204.81	–
293.15 K, x2 = 0.0523	1194.07	–
293.15 K, x2 = 0.1021	1184.1	–
293.15 K, x2 = 0.1995	1165.18	–
293.15 K, x2 = 0.2987	1146.67	–
293.15 K, x2 = 0.4003	1128.44	–
293.15 K, x2 = 0.5164	1108.38	–
293.15 K, x2 = 0.6011	1094.3	–
293.15 K, x2 = 0.6989	1078.57	–
293.15 K, x2 = 0.7989	1062.97	–
293.15 K, x2 = 0.9003	1047.58	–
293.15 K, x2 = 0.9506	1040.04	–
298.15 K, x2 = 0	1199.02	2.52
298.15 K, x2 = 0.0523	1188.38	–
298.15 K, x2 = 0.1021	1178.51	–
298.15 K, x2 = 0.114	–	2.391
298.15 K, x2 = 0.1995	1159.73	–
298.15 K, x2 = 0.2013	–	2.294
298.15 K, x2 = 0.2987	1141.4	–
298.15 K, x2 = 0.3347	–	2.158
298.15 K, x2 = 0.389	–	2.103
298.15 K, x2 = 0.4003	1123.3	–
298.15 K, x2 = 0.5	–	2.003
298.15 K, x2 = 0.5164	1103.36	–
298.15 K, x2 = 0.597	–	1.926
298.15 K, x2 = 0.6011	1089.39	–
298.15 K, x2 = 0.6989	1073.78	–
298.15 K, x2 = 0.709	–	1.845
298.15 K, x2 = 0.7891	–	1.796
298.15 K, x2 = 0.7989	1058.3	–
298.15 K, x2 = 0.8985	–	1.732
298.15 K, x2 = 0.9003	1043	–
298.15 K, x2 = 0.9506	1035.5	–
303.15 K, x2 = 0	1194	2.27
303.15 K, x2 = 0.0523	1183.42	–
303.15 K, x2 = 0.1021	1173.58	–
303.15 K, x2 = 0.114	–	2.157
303.15 K, x2 = 0.1995	1154.87	–
303.15 K, x2 = 0.2013	–	2.076
303.15 K, x2 = 0.2987	1136.58	–
303.15 K, x2 = 0.3347	–	1.957
303.15 K, x2 = 0.389	–	1.908
303.15 K, x2 = 0.4003	1118.52	–
303.15 K, x2 = 0.5	–	1.821
303.15 K, x2 = 0.5164	1098.63	–
303.15 K, x2 = 0.597	–	1.754
303.15 K, x2 = 0.6011	1084.68	–
303.15 K, x2 = 0.6989	1069.12	–
303.15 K, x2 = 0.709	–	1.685
303.15 K, x2 = 0.7891	–	1.641
303.15 K, x2 = 0.7989	1053.68	–
303.15 K, x2 = 0.8985	–	1.585
303.15 K, x2 = 0.9003	1038.41	–
303.15 K, x2 = 0.9506	1030.92	–
308.15 K, x2 = 0	1188.57	2.08
308.15 K, x2 = 0.0523	1178.1	–
308.15 K, x2 = 0.1021	1168.35	–
308.15 K, x2 = 0.114	–	1.988
308.15 K, x2 = 0.1995	1149.78	–
308.15 K, x2 = 0.2013	–	1.916
308.15 K, x2 = 0.2987	1131.63	–
308.15 K, x2 = 0.3347	–	1.81
308.15 K, x2 = 0.389	–	1.767
308.15 K, x2 = 0.4003	1113.71	–
308.15 K, x2 = 0.5	–	1.688
308.15 K, x2 = 0.5164	1093.99	–
308.15 K, x2 = 0.597	–	1.628
308.15 K, x2 = 0.6011	1080.16	–
308.15 K, x2 = 0.6989	1064.71	–
308.15 K, x2 = 0.709	–	1.568
308.15 K, x2 = 0.7891	–	1.527
308.15 K, x2 = 0.7989	1049.38	–
308.15 K, x2 = 0.8985	–	1.475
308.15 K, x2 = 0.9003	1034.2	–
308.15 K, x2 = 0.9506	1026.76	–
313.15 K, x2 = 0	1183.11	1.91
313.15 K, x2 = 0.0523	1172.69	–
313.15 K, x2 = 0.1021	1162.99	–
313.15 K, x2 = 0.114	–	1.828
313.15 K, x2 = 0.1995	1144.5	–
313.15 K, x2 = 0.2013	–	1.765
313.15 K, x2 = 0.2987	1126.42	–
313.15 K, x2 = 0.3347	–	1.673
313.15 K, x2 = 0.389	–	1.636
313.15 K, x2 = 0.4003	1108.58	–
313.15 K, x2 = 0.5	–	1.568
313.15 K, x2 = 0.5164	1088.95	–
313.15 K, x2 = 0.597	–	1.516
313.15 K, x2 = 0.6011	1075.18	–
313.15 K, x2 = 0.6989	1059.78	–
313.15 K, x2 = 0.709	–	1.461
313.15 K, x2 = 0.7891	–	1.426
313.15 K, x2 = 0.7989	1044.52	–
313.15 K, x2 = 0.8985	–	1.379
313.15 K, x2 = 0.9003	1029.43	–
313.15 K, x2 = 0.9506	1022.03	–
318.15 K, x2 = 0	1177.55	1.75
318.15 K, x2 = 0.0523	1167.21	–
318.15 K, x2 = 0.1021	1157.58	–
318.15 K, x2 = 0.114	–	1.682
318.15 K, x2 = 0.1995	1139.21	–
318.15 K, x2 = 0.2013	–	1.627
318.15 K, x2 = 0.2987	1121.25	–
318.15 K, x2 = 0.3347	–	1.545
318.15 K, x2 = 0.389	–	1.513
318.15 K, x2 = 0.4003	1103.52	–
318.15 K, x2 = 0.5	–	1.453
318.15 K, x2 = 0.5164	1084	–
318.15 K, x2 = 0.597	–	1.407
318.15 K, x2 = 0.6011	1070.31	–
318.15 K, x2 = 0.6989	1054.99	–
318.15 K, x2 = 0.709	–	1.359
318.15 K, x2 = 0.7891	–	1.328
318.15 K, x2 = 0.7989	1039.81	–
318.15 K, x2 = 0.8985	–	1.286
318.15 K, x2 = 0.9003	1024.81	–
318.15 K, x2 = 0.9506	1017.45	–
323.15 K, x2 = 0	1171.96	1.62
323.15 K, x2 = 0.0523	1161.72	–
323.15 K, x2 = 0.1021	1152.17	–
323.15 K, x2 = 0.114	–	1.56
323.15 K, x2 = 0.1995	1133.96	–
323.15 K, x2 = 0.2013	–	1.513
323.15 K, x2 = 0.2987	1116.14	–
323.15 K, x2 = 0.3347	–	1.443
323.15 K, x2 = 0.389	–	1.414
323.15 K, x2 = 0.4003	1098.55	–
323.15 K, x2 = 0.5	–	1.361
323.15 K, x2 = 0.5164	1079.17	–
323.15 K, x2 = 0.597	–	1.32
323.15 K, x2 = 0.6011	1065.56	–
323.15 K, x2 = 0.6989	1050.38	–
323.15 K, x2 = 0.709	–	1.278
323.15 K, x2 = 0.7891	–	1.25
323.15 K, x2 = 0.7989	1035.3	–
323.15 K, x2 = 0.8985	–	1.213
323.15 K, x2 = 0.9003	1020.41	–
323.15 K, x2 = 0.9506	1013.09	–

Reference: the NIST ThermoML archive (doi:10.1016/j.jct.2015.08.013)
